Measured values published in patent US10500158B2, “Cationic lipid” (Kyowa Hakko Kirin Co., Ltd., priority 2014, dated 2019).

Legend:
[1] = Average particle size of the preparations, measured with a particle size measurement apparatus; assay type: physicochemical; conditions: preparations of Examples 21 and 22 (composition containing the compound and f7 siRNA-1)
Description: Each sample was weighed to be compound 1/PEG-DMPE Na (manufactured by NOF Corp.)=57.3/5.52 mmol/L, and suspended in an aqueous solution containing hydrochloric acid and ethanol. A homogenous suspension was obtained by repeating stirring with a vortex stirring mixer and heating. This suspension was passed through a 0.05-μm polycarbonate membrane filter at room temperature to obtain a dispersion of compound 1/PEG-DMPE Na particles (liposomes). The average particle size of the obtained liposomes was measured with a particle size measurement apparatus to confirm that the average particle size fell within the range of 30 nm to 100 nm. The obtained liposome dispersion and the f7 siRNA-1 solution were mixed at a ratio of liposome dispersion:f7 siRNA-1 solution=3:1. A 3-fold amount of distilled water was further added thereto and mixed to prepare a compound 1/PEG-DMPE Na/f7 siRNA-1 complex dispersion.
The average particle sizes of the preparations (compositions) obtained in Examples 21 and 22 were measured using a particle size measurement apparatus.
The average particle sizes of the preparations (compositions) obtained in Example 23 and Comparative Example 1 were measured using a particle size measurement apparatus.

factor VII gene = test: Test Example 1: in vivo drug efficacy evaluation, factor VII protein concentration in plasma after i.v. administration of f7 siRNA-1 preparations; parameters: species or system Mice (Balb/c); conditions: mice, intravenous, 0.03 and/or 0.3 mg/kg siRNA (f7 siRNA-1), 48 hours after administration; FIGS. 1 and 2
Procedure: The preparations (compositions containing compounds 1, 2, and 4 to 7, respectively, and f7 siRNA-1) obtained in Examples 21 and 22 were each subjected to an in vivo drug efficacy evaluation test by a method given below. Each preparation was used after being diluted with physiological saline according to the test.
Mice (Balb/c, obtained from CLEA Japan, Inc.) were acclimatized and raised. Then, each preparation was intravenously administered at 0.03 and/or 0.3 mg/kg in terms of the siRNA concentration to the mice. 48 hours after the administration, blood was collected, and the collected blood was centrifuged at 8000 rpm at 4° C. for 8 minutes using a high-speed refrigerated microcentrifuge (TOMY MX305; manufactured by Tomy Seiko Co., Ltd.). Absorbance in standard solutions and the plasma samples was measured in ARVO (405 nm) using BIOPHEN VII kit (manufactured by ANIARA, cat#: A221304) according to the method described in the instruction manual of the product. A calibration curve was prepared from the obtained absorbance, and the factor VII protein concentration in plasma was calculated. n=3 for each group.

| SMILES | Particle size of obtained preparation (nm) [1] | expression of the factor VII gene (factor VII protein concentration in plasma) (factor VII gene) |
| --- | --- | --- |
| CCCCCC/C=C\CCCCCCCCC1(CCCCCCCC/C=C\CCCCCC)CN(C)C1 [Compound 6, 3,3-Bis[(Z)-hexadec-9-en-1-yl]-1-methylazetidine] | 123 nm | – |
| CCCCCCCC/C=C\CCCCCCCCC1(CCCCCCCC/C=C\CCCCCCCC)CN(C)C1 [Compound 5, 1-Methyl-3,3-bis[(Z)-octadec-9-en-1-yl]azetidine] | 115 nm | – |
| CCCCC/C=C\C/C=C\CCCCCCCCCCC1(CCCCCCCCCC/C=C\C/C=C\CCCCC)CN(C)C1 [Compound 7, 3,3-Bis[(11Z,14Z)-icosa-11,14-dien-1-yl]-1-methylazetidine] | 128 nm | – |
| CCCCC/C=C\C/C=C\CCCCCCCCC1(CCCCCCCC/C=C\C/C=C\CCCCC)CN(C(=O)OCCCN(C)C)C1 [Compound 4, 3-(Dimethylamino)propyl 3,3-bis[(9Z,12Z)-octadeca-9,12-dien-1-yl]azetidine-1-carboxylate] | 127 nm | – |
| CCCCC/C=C\C/C=C\CCCCCCCCC1(CCCCCCCC/C=C\C/C=C\CCCCC)CN(C)C1 [Compound 1, 1-Methyl-3,3-bis[(9Z,12Z)-octadeca-9,12-dien-1-yl]azetidine] | 113 nm | strongly suppressed |
| CCCCC/C=C\C/C=C\CCCCCCCCC1(CCCCCCCC/C=C\C/C=C\CCCCC)CN(CCC)C1 [Compound 2, 3,3-Bis[(9Z,12Z)-octadeca-9,12-dien-1-yl]-1-propylazetidine] | 116 nm | strongly suppressed |
